Measurements taken from patent publication US11840686B2, “Modulation of prekallikrein (PKK) expression” (Ionis Pharmaceuticals, Inc., priority 2013, dated 2023).
Strand notation (5' to 3'): a small letter for the sugar, then the base; units joined by * are phosphorothioate-linked, units joined directly phosphodiester-linked; [ ] holds rarer units or linkages, { } end groups; capitals alone tell only the bases. e = 2'-O-(2-methoxyethyl) (MOE); [5mC] = 5-methylcytosine; d = 2'-deoxy (DNA)

System: human PKK mRNA
Experiment: Antisense inhibition of human PKK mRNA in HepaRG cells, 5,000 nM (Example 2)
Assay type: cell-based
Conditions: HepaRG cells, electroporation with 5,000 nM antisense oligonucleotide, approx. 24 hours, PKK mRNA by RT-PCR (RTS3454), relative to untreated control cells
Outline: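 HepaRG cells (20,000/well) electroporated with 5,000 nM MOE gapmer (phosphorothioate backbone, 5-methylcytosines) and harvested after ~24 h. PKK mRNA measured by qRT-PCR with primer probe set RTS3454, normalized to RIBOGREEN total RNA; percent inhibition versus untreated cells.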

Substance	% inhibition (Table 7) [%]	% inhibition (Table 8) [%]
547381 (eT*eG*eT*eG*eA*d[5mC]*dT*d[5mC]*dG*dA*dT*dT*dT*dT*d[5mC]*e[5mC]*eA*eT*eA*e[5mC]; antisense) [compound 547381]	49	
547382 (e[5mC]*eT*eT*eT*eG*dT*dG*dA*d[5mC]*dT*d[5mC]*dG*dA*dT*dT*eT*eT*e[5mC]*e[5mC]*eA; antisense) [compound 547382]	62	
547383 (eT*eT*e[5mC]*eT*eT*dT*dG*dT*dG*dA*d[5mC]*dT*d[5mC]*dG*dA*eT*eT*eT*eT*e[5mC]; antisense) [compound 547383]	37	
547384 (eA*eA*eA*e[5mC]*eA*dT*dT*dT*d[5mC]*dT*dT*dT*dG*dT*dG*eA*e[5mC]*eT*e[5mC]*eG; antisense) [compound 547384]	50	
547385 (eT*eG*eT*eG*e[5mC]*d[5mC]*dA*d[5mC]*dT*dT*dT*d[5mC]*dA*dG*dA*eT*eG*eT*eT*eT; antisense) [compound 547385]	80	
547386 (eA*e[5mC]*eT*eT*eG*dG*dT*dG*dT*dG*d[5mC]*d[5mC]*dA*d[5mC]*dT*eT*eT*e[5mC]*eA*eG; antisense) [compound 547386]	78	
547387 (eT*eG*eG*eT*eG*dT*dT*dT*dT*d[5mC]*dT*dT*dG*dA*dG*eG*eA*eG*eT*eA; antisense) [compound 547387]	73	
547388 (eT*eA*eT*eG*eG*dT*dG*dT*dT*dT*dT*d[5mC]*dT*dT*dG*eA*eG*eG*eA*eG; antisense) [compound 547388]	55	
547389 (e[5mC]*eA*eG*eA*eT*dA*dT*dG*dG*dT*dG*dT*dT*dT*dT*e[5mC]*eT*eT*eG*eA; antisense) [compound 547389]	61	
547390 (eA*eT*e[5mC]*e[5mC]*eA*dG*dA*dT*dA*dT*dG*dG*dT*dG*dT*eT*eT*eT*e[5mC]*eT; antisense) [compound 547390]	63	
547391 (eA*eT*eA*eT*e[5mC]*d[5mC]*dA*dG*dA*dT*dA*dT*dG*dG*dT*eG*eT*eT*eT*eT; antisense) [compound 547391]	32	
547392 (eA*eA*eG*eG*e[5mC]*dT*dA*dT*dA*dT*d[5mC]*d[5mC]*dA*dG*dA*eT*eA*eT*eG*eG; antisense) [compound 547392]	81	
547393 (eT*eG*e[5mC]*eA*eG*dG*dT*dT*dA*dA*dA*dA*dG*dG*d[5mC]*eT*eA*eT*eA*eT; antisense) [compound 547393]	73	
547394 (eT*eT*eT*eG*e[5mC]*dA*dG*dG*dT*dT*dA*dA*dA*dA*dG*eG*e[5mC]*eT*eA*eT; antisense) [compound 547394]	29	
547395 (eA*eA*eG*eT*eT*d[5mC]*dT*dT*dT*dT*dG*d[5mC]*dA*dG*dG*eT*eT*eA*eA*eA; antisense) [compound 547395]	15	
547396 (eT*e[5mC]*eA*eG*eG*dT*dA*dA*dA*dG*dT*dT*d[5mC]*dT*dT*eT*eT*eG*e[5mC]*eA; antisense) [compound 547396]	49	
547397 (eG*eT*eT*e[5mC]*eA*dG*dG*dT*dA*dA*dA*dG*dT*dT*d[5mC]*eT*eT*eT*eT*eG; antisense) [compound 547397]	27	
547398 (e[5mC]*eA*eG*eG*eG*dT*dT*d[5mC]*dA*dG*dG*dT*dA*dA*dA*eG*eT*eT*e[5mC]*eT; antisense) [compound 547398]	16	
547399 (eG*e[5mC]*eA*eG*eG*dG*dT*dT*d[5mC]*dA*dG*dG*dT*dA*dA*eA*eG*eT*eT*e[5mC]; antisense) [compound 547399]	10	
547400 (eT*eG*eG*e[5mC]*eA*dG*dG*dG*dT*dT*d[5mC]*dA*dG*dG*dT*eA*eA*eA*eG*eT; antisense) [compound 547400]	0	
547401 (eG*eA*eA*eT*eG*dG*d[5mC]*dA*dG*dG*dG*dT*dT*d[5mC]*dA*eG*eG*eT*eA*eA; antisense) [compound 547401]	22	
547402 (eT*eT*eT*eA*eG*dA*dA*dT*dG*dG*d[5mC]*dA*dG*dG*dG*eT*eT*e[5mC]*eA*eG; antisense) [compound 547402]	59	
547403 (eA*eT*eT*eT*eT*dA*dG*dA*dA*dT*dG*dG*d[5mC]*dA*dG*eG*eG*eT*eT*e[5mC]; antisense) [compound 547403]	10	
547404 (eA*eG*eT*e[5mC]*eA*dA*d[5mC]*dT*d[5mC]*d[5mC]*d[5mC]*dG*dG*dG*dT*eA*eA*eA*eT*eT; antisense) [compound 547404]	64	
547405 (e[5mC]*eA*eA*eA*eG*dT*d[5mC]*dA*dA*d[5mC]*dT*d[5mC]*d[5mC]*d[5mC]*dG*eG*eG*eT*eA*eA; antisense) [compound 547405]	47	

Substance	% inhibition (Table 7) [%]	% inhibition (Table 8) [%]
547406 (e[5mC]*eT*e[5mC]*e[5mC]*eT*d[5mC]*d[5mC]*dA*dA*dA*dG*dT*d[5mC]*dA*dA*e[5mC]*eT*e[5mC]*e[5mC]*e[5mC]; antisense) [compound 547406]	81	
547407 (eT*eT*e[5mC]*eA*eA*dT*dT*d[5mC]*dT*dT*d[5mC]*dT*d[5mC]*d[5mC]*dT*e[5mC]*e[5mC]*eA*eA*eA; antisense) [compound 547407]	59	
547408 (eT*e[5mC]*eA*e[5mC]*eA*dT*dT*d[5mC]*dA*dA*dT*dT*d[5mC]*dT*dT*e[5mC]*eT*e[5mC]*e[5mC]*eT; antisense) [compound 547408]	84	
547409 (eA*eG*eT*e[5mC]*eA*d[5mC]*dA*dT*dT*d[5mC]*dA*dA*dT*dT*d[5mC]*eT*eT*e[5mC]*eT*e[5mC]; antisense) [compound 547409]	67	
547410 (e[5mC]*eA*eA*eG*eT*d[5mC]*dT*d[5mC]*dT*dT*dG*dG*d[5mC]*dA*dA*eA*e[5mC]*eA*eT*eT; antisense) [compound 547410]		88
547411 (e[5mC]*eA*eT*e[5mC]*eT*dT*dT*dG*dT*dG*d[5mC]*dA*dA*dG*dT*e[5mC]*eT*e[5mC]*eT*eT; antisense) [compound 547411]		79
547412 (eA*eT*e[5mC]*eA*eT*d[5mC]*dT*dT*dT*dG*dT*dG*d[5mC]*dA*dA*eG*eT*e[5mC]*eT*e[5mC]; antisense) [compound 547412]		73
547414 (eT*eG*eG*eG*eA*dG*dT*dA*dA*dA*dG*dA*dA*dT*dA*eA*eG*eT*eG*eA; antisense) [compound 547414]		76
547415 (eT*e[5mC]*eT*eG*eG*dG*dA*dG*dT*dA*dA*dA*dG*dA*dA*eT*eA*eA*eG*eT; antisense) [compound 547415]		71
547416 (e[5mC]*eT*eT*eA*e[5mC]*dA*dG*dT*d[5mC]*dT*dT*d[5mC]*dT*dG*dG*eG*eA*eG*eT*eA; antisense) [compound 547416]		79
547417 (eT*e[5mC]*e[5mC]*eT*eT*dA*d[5mC]*dA*dG*dT*d[5mC]*dT*dT*d[5mC]*dT*eG*eG*eG*eA*eG; antisense) [compound 547417]		68
547418 (e[5mC]*eA*e[5mC]*eT*eT*dA*d[5mC]*dA*d[5mC]*dT*dT*d[5mC]*dT*d[5mC]*dT*eT*e[5mC]*e[5mC]*eT*eT; antisense) [compound 547418]		0
547419 (e[5mC]*eT*eT*eA*eA*dG*dA*dA*dA*d[5mC]*dA*d[5mC]*dT*dT*dA*e[5mC]*eA*e[5mC]*eT*eT; antisense) [compound 547419]		51
547420 (e[5mC]*e[5mC]*eA*eT*eA*dG*dA*dT*dA*dA*dT*d[5mC]*dT*dT*dA*eA*eG*eA*eA*eA; antisense) [compound 547420]		8
547421 (e[5mC]*eA*eT*e[5mC]*e[5mC]*dA*dT*dA*dG*dA*dT*dA*dA*dT*d[5mC]*eT*eT*eA*eA*eG; antisense) [compound 547421]		69
547422 (eA*e[5mC]*e[5mC]*eA*eT*d[5mC]*d[5mC]*dA*dT*dA*dG*dA*dT*dA*dA*eT*e[5mC]*eT*eT*eA; antisense) [compound 547422]		70
547424 (eA*eG*eA*eG*e[5mC]*dT*d[5mC]*d[5mC]*d[5mC]*dT*dT*dG*dT*dG*dT*e[5mC]*e[5mC]*e[5mC]*eA*eT; antisense) [compound 547424]		90
547425 (eT*eA*eA*e[5mC]*e[5mC]*dA*dG*dA*dG*d[5mC]*dT*d[5mC]*d[5mC]*d[5mC]*dT*eT*eG*eT*eG*eT; antisense) [compound 547425]		85
547427 (eA*eA*eG*eA*eG*dT*dA*dA*d[5mC]*d[5mC]*dA*dG*dA*dG*d[5mC]*eT*e[5mC]*e[5mC]*e[5mC]*eT; antisense) [compound 547427]		79
547428 (eT*e[5mC]*eA*eA*eA*dG*dA*dG*dT*dA*dA*d[5mC]*d[5mC]*dA*dG*eA*eG*e[5mC]*eT*e[5mC]; antisense) [compound 547428]		78
547429 (eA*eA*eT*e[5mC]*eT*d[5mC]*dA*dA*dA*dG*dA*dG*dT*dA*dA*e[5mC]*e[5mC]*eA*eG*eA; antisense) [compound 547429]		81
547430 (e[5mC]*eA*eA*eT*e[5mC]*dT*d[5mC]*dA*dA*dA*dG*dA*dG*dT*dA*eA*e[5mC]*e[5mC]*eA*eG; antisense) [compound 547430]		70
547431 (e[5mC]*eA*eG*eT*eG*dT*dT*dA*d[5mC]*dA*d[5mC]*dA*dA*dT*d[5mC]*eT*e[5mC]*eA*eA*eA; antisense) [compound 547431]		67
547432 (e[5mC]*e[5mC]*e[5mC]*eA*eG*dT*dG*dT*dT*dA*d[5mC]*dA*d[5mC]*dA*dA*eT*e[5mC]*eT*e[5mC]*eA; antisense) [compound 547432]		90
